Data set [1] is described as follows: Determination of log D7.4 (experimental). The data set is classed as physicochemical. As to conditions: pH 7.4, n = 6. As for the experimental part:
Human serum was purchased (Biochrom, Biochrom, UK). Human plasma and cerebrospinal fluid was a kind gift from the laboratory of Prof. P. Lewczuk of the clinical neurochemistry in Erlangen. Rat plasma was collected from male Sprague Dawley blood samples. The blood samples were collected intravenous and centrifuged at 2000 rpm for 15 min in heparin coated vials. The supernatant was stored in aliquots at −20 °C. Radioactivity was measured with radio HPLC or in a gamma-counter (Wallac Wizard, PerkinElmer, Waltham, MA, USA). The determination of the distribution coefficient at pH 7.4 (log D7.4) has been previously published.

Data set [2] can be described thus: In vitro stability in human serum. The data set is classed as in vitro ADME. The conditions noted are these: 37 °C, after 120 min. As for the experimental part:
For the in vitro stability, an aliquot of the respective radioligand (1–5 MBq) was added to human serum (200 μL) and incubated at 37 °C. Aliquots (20 μL) were taken after 15, 30 and 120 min and analyzed by radio-HPLC (Method 1).

For data set [3], the system named is dopamine D3 receptor. The experiment in a line: Dynamic small-animal PET recordings. The data set is classed as in vivo. As to conditions: rat. As for the experimental part:
Small-animal PET imaging studies were conducted with male Sprague Dawleys rats (250–300 g) on a Inveon microPET scanner (Siemens Healthcare, Erlangen, Germany) under isoflurane (3%) anesthesia. After intravenous injection of [^18F]2b (10–15 MBq), dynamic emission recordings consisting of 13 frames of duration increasing from 30 s to 10 min were acquired to a total of 60 min. For displacement studies BP897 (1 mg/kg) was administered 30 min prior to radioligand injection. Dynamic emission images were corrected for attenuation and decay, and reconstructed by the iterative maximum a posteriori estimation, using software installed in the Inveon PET for dead time and random correction. The dynamic PET scan was then evaluated using the software Amide. The regions of interest were evaluated voxel based and the mean activity in %ID/g of each frame calculated.

Data set [4] addresses T1, D3 receptor (Rattus norvegicus, UniProt P19020).
T1 construct: In vitro autoradiography of coronal rat brain sections after incubation with the respective radioligand; from tissue; host or cells: coronal brain cryosections (20 µm) of male Sprague Dawley rats
The data set can be described thus: In vitro autoradiography of coronal rat brain sections. The data set is classed as binding. As to conditions: displacement with BP897. As for the experimental part: Male Sprague Dawley rats (200–250 g) were sacrificed by decapitation under deep isoflurane anesthesia and brains were removed and frozen in cooled hexane at −70 °C. Coronal brain sections (20 µm) were cut on a cryostat microtome (HM550, Microm-Thermo Fisher Scientific, Walldorf, Germany) and thaw-mounted on covered glass slides (Histobond®, Marienfeld, Lauda Königshofen, Germany). The thaw mounted sections were stored at −20 °C up to 14 days.
The cryostat sections were pre-incubated for 15 min in incubation buffer (50 mM Tris-HCl, 40 mM NaCl, pH 7.4) at room temperature. The sections were then placed in incubation buffer containing 5 MBq of the respective tracer. For displacement studies BP897 (50 nM or 1 µM) was added. The sections were incubated at room temperature for 45 min and afterwards washed in ice cold incubation buffer for 3 × 5 min. Subsequently, they were dipped in water and after drying placed on a phosphor imaging screen (Fujitsu, Berlin, Germany) over night. The screens were analyzed with a DUERR Medical HD-CR 35 Bio (Raytest, Straubenhardt, Germany) and evaluated using the software AIDA image analyzer (Raytest). For anatomical identification of brain regions, the sections were compared with figures in the rat brain atlas.

Data set [5] in a line: Free fraction in rat plasma. The conditions noted are these: for bound to proteins in plasma: of the injected dose; for free radioligand in rat plasma: Figure 3b. The data set is classed as in vitro ADME. Here is the method:
(§1) The free fraction in vitro was determined by adding the respective radioligand (100 kBq) to plasma or CSF (200 µL) and mixed vigorously. Aliquots of 20–50 µL were transferred to size exclusion chromatography columns (MicroSpin G-50; GE Healthcare GmbH, Solingen, Germany, centrifuged for two min at 2000 rpm, and the radioactivity in the filtrate and in the resin were measured in the gamma-counter. Three independent experiments were performed in triplicates.
For the ex vivo determination of the radioligands binding to proteins the respective tracer (15 MBq) was administered intravenous to male Sprague Dawley rats (200–250 g) under isoflurane anesthesia. Blood samples were drawn intravenous after 5, 15 and 30 min and centrifuged for 5 min at 2000 rpm in heparin-coated vials. An aliquot of 50 µL was taken from the supernatant and added to an equal volume of water (10% TFA). The protein precipitate was centrifuged off for 5 min at 25,000 rpm and analyzed together with a further 50 µL aliquot of the supernatant in the gamma-counter. Two independent experiments were performed.

Data set [6] in a line: Binding to proteins in human plasma in vitro. The data set is classed as in vitro ADME. As to conditions: human vs rat plasma. As for the experimental part:
as §1

Data set [7] is described as follows: In vivo stability in blood of living rats (radiometabolites). The arrangement: species or system rat. As for the experimental part: For the determination of radioligand stability in vivo and detection of radiometabolites the respective radiotracer (15 MBq) was administered intravenous to male Sprague Dawley rats (200–250 g) under isoflurane anesthesia. Blood samples were drawn intravenous after 5, 15 and 30 min and centrifuged for 5 min at 2000 rpm in heparin-coated vials. An aliquot of 50 µL was taken from the supernatant and added to an equal volume of water (10% TFA). The protein precipitate was centrifuged off for 5 min at 25,000 rpm and an aliquot of the supernatant was fractioned with HPLC (Chromolith RP-18e, 100 mm × 4.6 mm, 4 mL/min, solvent A: water (0.1% TFA), solvent B: acetonitrile (0.1% TFA), gradient A/B: 90:10 to 0:100 in 15 min, λ = 214 nm). The fractions were then analyzed in the gamma-counter. To identify the fractions containing the intact radioligand, the retention time and fractioning of the respective tracer was previously assessed. Two independent experiments were performed.

In data set [8] the target is D3 receptor. As to conditions: cited from earlier work.
Details of data set [9]: method as in PMID 24339325, PMID 26707848. As to conditions: experimental, pH 7.4, n = 6, previously reported; cited from earlier work.
On the set-up of data set [10]: method as in PMID 24339325, PMID 26707848. As to conditions: over 120 min, previously reported; cited from earlier work.
Data set [11] addresses T2, P-gp (Homo sapiens, UniProt P08183).
T2 construct: endogenous in cells; host or cells: Caco-2
The data set can be described thus: P-gp inhibition assay (cellular uptake) in Caco-2 cells. As to conditions: with vs without cyclosporin-A. The data set is classed as cell-based. Here is the method: (§2) EA.hy926 cells were seeded in culture medium at confluency the day prior to experiment or in case of the Caco-2 cells two days prior to experiment in 24-multiwell plates (Greiner Bio-One International GmbH, Kremsmünster, Austria). On the day of the experiment the culture medium was removed and the cells were washed once with PBS (500 µL). Culture medium supplemented with cyclosporine-A (5 µM for EA.hy926 and 10 µM for Caco-2) was added and the cells were incubated at 37 °C for 30 min. Afterwards 1 MBq of [^18F]2b was added to each well and incubated for further 30, 60 and 90 min. After incubation cells were washed with ice cold PBS (500 µL) and lysated with 0.1 M NaOH. The medium and lysates were analysed in the gamma-counter. To identify cyclosporine-A induced accumulation the experiment was also performed using culture medium lacking cyclosporine-A. As positive control the experiment was performed with ^99mTc-MIBI (100 kBq/well), a known P-gp substrate. To determine the lowermost concentration with which a maximum effect was obtained, cyclosporine-A was applied in a range of 0–50 µM and observed in a time frame of 30–120 min for both cell lines.

The target in data set [12] is T2, P-gp. The experiment in a line: Bi-directional transport assay in Caco-2 cells. The data set is classed as cell-based. As for the experimental part: The procedure of initially adding equal concentrations to both compartments was adapted from the literature. Caco-2 cells were seeded near confluency in thin-cert inserts (translucent, Ø 0.4 µm, 24 well PET membrane, Greiner) and placed in multiwell plates (CELLSTAR 24 Multiwell plates, Greiner). The culture medium basolateral (multiwell) and apical (insert) was renewed every 2–3 days. Approximately 12 days after seeding the Caco-2 cells reached their highest trans-epithelial resistance, which was monitored every four days and on day of the experiment. An immunocytochemistry was also performed with an additional insert (translucent) to confirm stable formation of tight-junctions and cell monolayer. Culture medium was then removed and the cells were washed with PBS. Culture medium supplemented with cyclosporin (10 µM) was added to both compartments and the cells were incubated at 37 °C for 30 min. Afterwards 1 MBq [^18F]2b was added to each compartment. An aliquot was taken from each compartment after 0, 30, 60 and 90 min and analyzed in the gamma-counter. To identify cyclosporine-A induced accumulation the experiment was also performed using culture medium lacking cyclosporine-A. As positive control the experiment was performed with ^99mTc-MIBI (100 kBq/ compartment).
In general terms: Passage across Caco-2 layers is used to estimate intestinal permeability.

Data set [13] deals with T2, P-gp. The experiment in a line: P-gp inhibition assay (cellular uptake) in EA.hy926 cells. The data set is classed as cell-based. The conditions noted are these: with vs without cyclosporin-A. As for the experimental part: as §2
Setting [14] is: Caco-2, absence of cyclosporin-A, up to 90 min.

Like-named read-outs stand apart in the source and are kept apart here.

T2 sequence (P08183 whole entry): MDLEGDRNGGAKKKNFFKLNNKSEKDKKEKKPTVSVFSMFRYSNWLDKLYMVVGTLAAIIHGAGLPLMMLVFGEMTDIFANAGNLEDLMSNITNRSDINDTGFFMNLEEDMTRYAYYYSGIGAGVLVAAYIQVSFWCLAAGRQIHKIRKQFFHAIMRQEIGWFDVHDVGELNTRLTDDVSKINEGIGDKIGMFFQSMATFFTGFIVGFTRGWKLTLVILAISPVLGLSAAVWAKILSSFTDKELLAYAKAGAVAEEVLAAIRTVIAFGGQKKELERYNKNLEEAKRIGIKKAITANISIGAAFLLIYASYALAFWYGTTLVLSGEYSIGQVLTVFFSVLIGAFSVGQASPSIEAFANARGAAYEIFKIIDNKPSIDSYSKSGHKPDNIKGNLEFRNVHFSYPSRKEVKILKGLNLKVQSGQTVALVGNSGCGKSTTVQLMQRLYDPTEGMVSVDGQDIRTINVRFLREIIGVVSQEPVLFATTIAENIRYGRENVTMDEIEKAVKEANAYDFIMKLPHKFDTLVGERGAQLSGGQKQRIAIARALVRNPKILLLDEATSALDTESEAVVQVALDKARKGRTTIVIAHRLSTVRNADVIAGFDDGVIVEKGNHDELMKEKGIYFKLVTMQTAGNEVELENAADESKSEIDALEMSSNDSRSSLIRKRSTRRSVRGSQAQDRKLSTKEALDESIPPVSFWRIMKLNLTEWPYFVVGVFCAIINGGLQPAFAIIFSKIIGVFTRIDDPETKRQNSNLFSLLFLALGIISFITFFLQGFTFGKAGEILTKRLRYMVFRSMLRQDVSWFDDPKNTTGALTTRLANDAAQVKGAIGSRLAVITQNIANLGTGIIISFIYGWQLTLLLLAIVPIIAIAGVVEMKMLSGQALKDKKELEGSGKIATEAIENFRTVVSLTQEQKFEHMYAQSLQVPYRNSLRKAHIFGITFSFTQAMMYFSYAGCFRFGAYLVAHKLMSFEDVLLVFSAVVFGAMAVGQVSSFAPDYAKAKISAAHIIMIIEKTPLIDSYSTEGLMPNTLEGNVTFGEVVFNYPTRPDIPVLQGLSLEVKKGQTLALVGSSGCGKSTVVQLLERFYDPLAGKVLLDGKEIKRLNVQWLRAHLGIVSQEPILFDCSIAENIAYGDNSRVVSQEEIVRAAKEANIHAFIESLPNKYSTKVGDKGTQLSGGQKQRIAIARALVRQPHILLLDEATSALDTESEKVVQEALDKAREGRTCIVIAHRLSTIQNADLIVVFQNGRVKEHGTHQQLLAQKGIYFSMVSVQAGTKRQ
T1 sequence (P19020 whole entry): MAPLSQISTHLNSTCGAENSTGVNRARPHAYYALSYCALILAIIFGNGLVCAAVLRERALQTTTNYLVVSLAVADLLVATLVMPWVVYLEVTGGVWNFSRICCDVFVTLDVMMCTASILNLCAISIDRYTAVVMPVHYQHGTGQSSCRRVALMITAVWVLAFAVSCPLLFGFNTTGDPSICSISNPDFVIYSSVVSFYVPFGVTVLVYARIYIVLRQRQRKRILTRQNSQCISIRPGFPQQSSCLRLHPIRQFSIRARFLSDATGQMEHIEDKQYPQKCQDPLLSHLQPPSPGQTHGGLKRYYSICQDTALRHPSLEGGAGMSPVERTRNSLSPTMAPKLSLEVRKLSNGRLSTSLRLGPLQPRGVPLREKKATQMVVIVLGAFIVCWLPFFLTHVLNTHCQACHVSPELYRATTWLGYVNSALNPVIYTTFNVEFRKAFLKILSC

Regarding `O=C(NCCC(O)CN1CCN(c2cccc(Cl)c2Cl)CC1)c1ccc(F)nc1` (centres unmarked) [[^18F]1, N-(4-(4-(2,3-Dichlorophenyl)piperazine-1-yl)-3-hydroxybutyl)-6-fluoronicotinamide], the logD in data set [1] was determined as 2.5 ± 0.04. Also, the “decomposition in human serum” value in data set [2] was ≤ 2%. For the same compound, the “uptake in the pituitary gland” value in [3] (30 min p.i.) is recorded as 0.45 %ID/g. Further, the “maximum uptake in the cerebral matter” value in data set [3] (after 50 seconds) was 0.25 %ID/g. In addition, the “uptake in the cerebral matter after wash-out” value in data set [3] (over the 60 min of recording) is 0.17 %ID/g. In addition, the “binding pattern in rat brain sections” value in data set [4] is “pronounced non-specific binding in the corpus callosum and anterior commissure”. Besides, the “bound to proteins in plasma” value in data set [5] is listed as 58%. Also, the “free radioligand in rat plasma” value in [5] is recorded as 42%. For the same compound, the “binding to human plasma higher than in rat plasma” value in data set [6] is on record as 20%–30%. Moreover, the “intact tracer in rat plasma” value was 57% in data set [7] (15 min post intravenous injection) and ~ 60% in data set [7] (nearly constant over the total sampling time). For the same compound, the Ki in data set [8] is 1.9 nM.

In the case of `O=C(/N=N/c1ccc([18F])cc1)NCCC(O)CN1CCN(c2cccc(Cl)c2Cl)CC1` (centres unmarked) [[^18F]2a], the “brain uptake smaller than for [^18F]2b, factor” value in [3] turned out to be 1.5. The “uptake in the pituitary gland” value in [3] (25 min p.i.) came out at 0.6 %ID/g. The “binding pattern in rat brain sections” value in data set [4] is recorded as “homogenous non-specific binding throughout the whole rat brain sections”. For the same compound, in data set [5], the “bound to proteins in plasma” value is 82% and the “free radioligand in rat plasma” value turned out to be 18%. The “Log D7.4” value in [9] is reported as 2.56 ± 0.01. The “decomposition in human serum” value in data set [10] is “no decomposition was observed”. Moreover, the inhibition constant Ki in data set [8] is 3.6 nM.

With `[99Tc].[C-]#[N+]CC(C)(C)OC.[C-]#[N+]CC(C)(C)OC.[C-]#[N+]CC(C)(C)OC.[C-]#[N+]CC(C)(C)OC.[C-]#[N+]CC(C)(C)OC.[C-]#[N+]CC(C)(C)OC` [^99mTc-MIBI, ^99mTc-methylisobutylnitrile, reference compound], the “influence of cyclosporin-A on cellular uptake” value in data set [11] and in data set [13] was “accumulated” throughout. The “concentration in the apical compartment, % of the initial concentration” value worked out at 120% in [12] (setting [14]); 90% in data set [12] (Caco-2, presence of cyclosporin-A (^99mTc-MIBI after 60 and 90 min; [^18F]2b after 30 min)). The “concentration in the basolateral compartment, % of the initial concentration” value in data set [12] (setting [14]) is given as 70%. Moreover, in [12] (Caco-2, presence of cyclosporin-A), the “concentration in the basolateral compartment” value was “remained nearly constant”.

For orientation: logD means lipophilicity at a set pH, counting ionised and neutral species. One may read the Ki as the dissociation constant of the complex between target and ligand, obtained from inhibition or displacement.

The values above are taken from PMC6272905, “In Vitro and In Vivo Characterization of Selected Fluorine-18 Labeled Radioligands for PET Imaging of the Dopamine D3 Receptor” (Molecules, 2016).
